Test results taken from patent US20060100264A1, “3,3'-Diindolylmethane immune activating compositions” (priority 2004, published 2006).

What was measured:
IFNGR1 protein = experiment: Western blot analysis of IFNGR1 protein; assay type: cell-based, human
Protocol: IFNGR1 protein levels increased by approximately 7 fold after 24 h and persisted to 48 h compared to DMSO-treated controls.
Comparison of our results with DIM to our studies with I3C (27) show some distinct differences in the activity of DIM and its in vivo precursor in their effects on IFNγ signaling. […] Similar effects of DIM and I3C were also observed on cell proliferation and cell cycling. […] Thus, a strong level of induction (about 5 fold) was seen after only 6 hours of exposure to DIM, and the maximum induction was attained by 24 hours of treatment with this diindole. In contrast, receptor expression was increased by only about 3 fold following 24 hours of treatment with I3C, and appeared to reach the maximum induction only after about 48 hours of exposure. […] Indeed, we have shown previously that DIM accumulates in the nucleus of MCF-7 cultured cells treated with I3C (28).

[1] = test system: 4GAS-Luc reporter (four repeats of the consensus GAS element); experiment: 4GAS-Luc luciferase reporter in transiently transfected MCF-7 cells; assay type: cell-based, human; conditions: DIM 50 μM, IFNγ concentration dependent, maximum
Protocol: In a further experiment to examine whether the inducing effects of DIM are at the transcriptional level, the effect of DIM on activities of two luciferase reporter constructs, OAS-Luc (12) and 4GAS-Luc (13) was examined. OAS-Luc contains the promoter and 5′-flanking region (−972) of p69-OAS and GAS-Luc contains four repeats of the consensus GAS element. MCF-7 cells transiently transfected with these reporter constructs were treated with IFNγ, DIM, or a combination of both for 24 h. […] IFNγ induced transcriptional activity of this reporter in a concentration dependent manner to a maximum of about 1.8 fold, which is less than the response of the endogenous gene of about 5.0 fold. In marked contrast to the maximum effects of combined treatments of the inducers on endogenous gene expression (nearly 12-fold increase compared to vehicle treated cells), the reporter gene construct responded with less than a 3-fold increase over the controls.
Thus, treatment with DIM (50 μM) by itself again produced a 2 to 3-fold increase in activity of this reporter. IFNγ treatments, however, produced a robust concentration dependent increase in reporter activity to approximately 40-fold induction compared to vehicle treated controls. […]

MCF-7 cells = experiment: Cell proliferation over a 4-day treatment period; assay type: cell-based, human; conditions: 4-day treatment, heat-treated serum
Protocol: Functional consequences of the synergistic effects of DIM and IFNγ on gene expression were examined at the level of proliferation rates. Cell proliferation was measured over a 4-day treatment period with treatments with DIM, IFNγ, or both substances, and compared to a DMSO control. With heat-treated serum, IFNγ alone reduced cell proliferation by as much as 70% compared to controls. DIM treatments reduced proliferation by as much as 60%. […] These effects were accompanied by morphological changes characteristic of apoptosis.

[2] = test system: HLA-A, HLA-B, HLA-C, β-microtubulin, TAP1 and TAP2; experiment: RT-PCR of MHC-I components and transporters in MCF-7 cells; assay type: cell-based, human
Description: RT-PCR was used to examine the expression of the four major components of human MHC-I, including HLA-A, HLA-B, HLA-C, and β-microtubulin, as well as two important associated transporters, TAP1 and TAP2. […] As expected, the expressions of these genes were increased 2-8 fold by treatment with IFNγ.

G-CSF = experiment: Serum G-CSF by ELISA in mice after DIM; assay type: in vivo; conditions: 30 μg/kg DIM orally
Protocol: (§1) We firstly investigated the effect of unsubstituted DIM on the production of IL-6, G-CSF, IL-12, TNF-α and IFNγ. A groups of 3 mice was given 30 μg/kg of unsubstituted DIM orally and then sacrificed at 1, 3, 5, 8, and 24 h after drug challenge. Serum was collected, pooled, and assayed for IL-6, G-CSF, IL-12 and TNF-α by ELISA. […] DIM produced an increase in circulating levels of G-CSF and TNF-α with the 3 h time point being maximal. […] DIM also stimulated IL-12 and kinetics were slightly different since the increased levels were sustained for at least 24 h.

IL-6 = experiment: Serum IL-6 by ELISA in mice after DIM; assay type: in vivo; conditions: 30 μg/kg DIM orally
Protocol: as §1

[3] = test system: IL-6, G-CSF, IL-12, TNF-α and IFNγ; experiment: Serum levels of cytokines in mice; assay type: in vivo
[4] = test system: Y. enterocolitica WA-314 serotype O:8; experiment: Y. enterocolitica infection of BALB/c mice, spleen bacterial numbers; assay type: in vivo
Protocol: Female, 6- to 8-week-old BALB/c mice are purchased from Charles River and kept under specific-pathogen-free conditions (positive-pressure cabinet).
Mice are given 30 μg/kg/day of a DIM or one of 24 substituted DIM compounds (Table 1, supra) orally, starting at 1 day prior to infection.
Freshly thawed, plasmid-harboring Y. enterocolitica WA-314 serotype O:8 organisms suspended in 0.1 ml of sterile phosphate-buffered saline (PBS), pH 7.4, are used for intravenous and oral infection as described previously (Autenrieth, et al. 1994. Infect. Immun. 62:2590-2599). The actual number of bacteria administered is determined by plating serial dilutions of the inoculum on Mueller-Hinton agar and counting CFU after an incubation period of 36 h at 26C. For kinetic studies, five mice per group are killed by carbon dioxide asphyxiation on days 1, 3, and 7 postinfection (p.i.) with 5×10^3 bacteria. Spleens are aseptically removed, and single-cell suspensions prepared by using 5 ml of PBS containing 0.1% bovine serum albumin. Duplicates of 0.1 ml of serial dilutions of these preparations are plated on Mueller-Hinton agar. The limit of detectable CFU is 25 (log1025=1.4).
In single end-point studies, bacterial numbers in spleens of treated BALB/c mice 7 days p.i. with 2×10^3 Y. enterocolitica show significant reductions compared with untreated controls.

c1ccc2c(Cc3c[nH]c4ccccc34)c[nH]c2c1 [DIM, 3,3′-Diindolylmethane]
Maximum level of IFNGR1 protein induction (IFNGR1 protein; DIM): about 7 fold | Time at which maximum IFNGR1 protein induction was attained (IFNGR1 protein; DIM): ≤ 24 h | IFNGR1 protein induction (IFNGR1 protein; after 6 hours of exposure to DIM): about 5 fold | IFNGR1 protein level increase compared to DMSO-treated controls (IFNGR1 protein; after 24 h of DIM, persisted to 48 h): approximately 7 fold | Induction of 4GAS-Luc reporter activity compared to vehicle treated controls [1]: 2 to 3 fold | Reduction of cell proliferation compared to controls (MCF-7 cells): ≤ 60% | Expression levels of the six genes (MHC-I components, TAP1, TAP2) above vehicle/background [2]: not significantly enhanced | Time point of maximal circulating G-CSF (G-CSF): 3 h | Time of peak IL-6 induction (IL-6): 5 h | Cytokine production, including IFNγ ([3]; intravenous administration): elevated cytokine production | Serum levels of cytokines ([3]; oral, 1-24 h after challenge): stimulated a time-dependent increase in serum levels of cytokines | Severity of yersiniae infection [4]: reduce the severity of yersiniae infection
